Test results published in patent US7687603B2, “Guanidinium delivery carriers” (priority 2005, dated 2010).
Numbered stars: 1 amine (or outer) side, 2 acyl side, 3 side chain; on linkers, the order of the positions; unused ones are H or OH. Side chains are listed from the residue outwards. Peptide text beside a SMILES is read from it. * marks the point of attachment. Doxorubicin(3'-N) = COc1cccc2c1C(=O)c1c(O)c3c(c(O)c1C2=O)C[C@@](O)(C(=O)CO)C[C@@H]3O[C@H]1C[C@H](N*)[C@H](O)[C@H](C)O1; Suc = O=C(CCC(=O)[*:2])[*:1]

What was measured:
B16F0 cells [1] = experiment: IC50% study; type: cell-based
Protocol: B16F0 cells (obtained from American Type Culture Collection, ATCC) were split into 96 well plates and incubated at 37° C. under 5% CO2. After 24 hours, BMPC-Pt was added to each well. The fluorescence of each well was measured using two wavelength filters (450 nm and 528 nm) before and several times after BMPC-Pt was added (24, 48, and 72 hours). Using measurements, the fluorescence intensity net increase ratio was calculated and the results are summarized in Table 3 and shown in FIGS. 19 and 20.

B16F0 cells [2] = experiment: IC50% study; type: cell-based; settings: 96 hours
[3] = Body weight changes after intra-tumor administration; type: in vivo, nu/nu athymic mice; settings: 21 days after intra-tumor administration
Protocol: (§1) Male nu/nu athymic mice (6-7 weeks old; 22-25 g; available from Charles River Laboratories) were inoculated subcutaneously on the right flank with 1.1×10^6 Hela and PC-3 cells to obtain xenografs of human PC-3 prostate cancer.
(§2) Approximately 4 days after inoculation, the four groups of five mice were administered a solution containing saline, doxorubicin, PTD, or DOX-PTD (e.g., 0.103×10^−4 mol) via intra-tumor injection or intravenously. The solution was administered once a week until the total volume administered equaled ˜50 μL/mouse. Size measurements of the tumor and the body weight of the mice were taken every other day. A saline solution was used as a control.

PC-3 cells = experiment: Cytotoxicity assay, live/dead cell staining; type: cell-based
Protocol: Prostate cancer cell lines (PC-3 cells) were maintained in 12-F medium containing 10% fetal bovine serum, 100 units/mL penicillin and 100 μg/mL streptomycin at 37° C. under 5% CO2 and 100% humid condition. To avoid confluency due to the short doubling time (˜20 hrs), the cells were split every 3-4 days.
The PC-3 cells were plated in 6-well tissue culture plates (5×10^5 cells/well) and incubated overnight in 12-F medium with 10% FBS. For each well, an aliquot of 200 μl Doxorubicin-protein transduction domain (DOX-PTD) solution at same mole concentration (0.2 mg/per well) was added. The cells were then incubated at 37° C. in 5% CO2 for 2 hrs.
After incubation, the live and dead cells were counted using cell staining analysis according to the protocol provided by the manufacturer. The dead cells stain red while the live cells stain green. The green and red fluorescent signals from the cells were observed under a fluorescent microscope (Olympus, filter 570 nm-605). The percentage of live cells in the cultures was determined from counts of three fields.

[4] = test system: xenografs of human PC-3 prostate cancer; experiment: DOX-PTD anti-tumor treatment in vivo study, tumor size; set-up: species or system nu/nu athymic mice; settings: intra-tumor administration, Dosedox=0.2 mg/kg, FIGS. 14 and 15
Protocol: as §1, §2

mammalian cells = experiment: MTT cytotoxicity study; type: cell-based
Protocol: (§3) Cytotoxicity of PTD carriers were evaluated in mammalian cells using 3-[4,5 dimethylthiazol-2-yl]-2,5-diphenyltetrazolium bromide (MTT). After inducing cytotoxicity (˜4 hrs) by routine methods, 10 μl of MTT solution (5.0 mg/ml in PBS, Sigma) was added to each well, and incubated at 37° C. for 3 hrs. The medium was then removed and 200 μl dimethyl sulfoxide (DMSO) was added into each well to dissolve the formazan crystals produced by living cells. The absorbance of the solution was measured at 570 nm. Cell viabilities were calculated using the equation: Viability (%)={Abs570 (sample)/Abs570 control}. A control reaction was run under the same conditions except for the addition of Dox-PTD.

MTT cytotoxicity study = type: cell-based; settings: mammalian cells, FIG. 13, read-out: cells survived (viability)
Protocol: as §3

Mouse skin tissue = experiment: In vivo transdermal delivery assay; settings: nude mice skin, 100 μl of 1 mM in PBS, 30 min, FIG. 9
Protocol: Compounds 9 and 11 from Examples 1 and 2 were tested in vivo. In vivo evaluation was conducted with a transdermal delivery assay on nude mice (NU/NU ♀). Nude mice (female, 6 weeks old, from Charles River) were anesthetized with 50 μl cocktail of Ketaset 25 mg/ml, Xylazine 5 mg/ml (i.m.). The skin was wiped with saline and a 100 μl solution of the test compounds (1 mM in PBS) was applied. A plastic ring was used to isolate the test solution and vaseline was rubbed outside of the ring. After 30 min incubation, the animal was sacrificed under deep anesthesia and the skin was removed. Mouse skin tissue was immediately embedded in OTC medium, cut into 5 μm on a cryostat and collected on slides, and stored at −70° C. The tissue was fixed in freshly prepared 4% paraformaldehyde in PBS for 10 min at 4° C. The tissue was then rinsed in PBS 2×5 min and incubated with 10% BSA containing 0.5% Triton X-100 in PBS for 30 min at 37° C. The samples were incubated with Streptavidin-FITC (diluted in 1% BSA containing 0.05% Triton X-100 in PBS) overnight at 4° C. […] The samples were rinsed twice in PBS 2×5 min and tap water and mounted with anti-fading mounting medium and observed under fluorescence microscope or confocal imaging analysis.

Hela 705 cells = experiment: Transduction assay (in vitro), fluorescence microscope; type: cell-based; settings: 30 min at 37° C., Streptavidin-FITC, FIG. 4
Protocol: The transduction efficiency of compound 9 from Example 1 and compound 11 from Example 2 were analyzed. Hela 705 cells were seeded at 1.5×10^4/well in 96-well plate and cultured overnight (about 70% confluenced). The media was discarded and the cells rinsed with PBS. Biotin-labeled test compounds (dissolved in PBS, pH: 7.4) were applied to culture(s) and incubated for 30 min at 37° C. The media was carefully discarded and the cells rinsed with PBS. The cells were fixed in freshly prepared 4% paraformaldehyde for 10 min at 4° C. The cells were rinsed and incubated with a blocking reagent (10% BSA containing 0.5% Triton X-100 in PBS) for 30 min at 37° C. The cells were again rinsed with PBS and incubated with Streptavidin-FITC for 30 min at room temperature. The cells were then rinsed with PBS and observed under fluorescence microscope.
The transduction activity of the disulfide linked HA compounds 13 and 14 from Example 4 were tested on Hela 705 cells following the procedure as mentioned above. FITC conjugated anti-HA antibody was applied for visualization.

SMILES	IC50 (B16F0 cells [1]; 24 hours) [µM]	IC50 (B16F0 cells [1]; 48 hours) [µM]	IC50 (B16F0 cells [1]; 72 hours) [µM]	IC50 (B16F0 cells [2]) [µM]	body weight difference between groups [3]	also measured
CC(=O)N[C@@H](CCCNC(=N)N)C(=O)N[C@@H](CCCNC(=N)N)C(=O)N[C@@H](CCCCNC(=O)[C@H](CCCNC(=N)N)NC(=O)[C@H](CCCNC(=N)N)NC(=O)CCC(=O)NC1CC(=O)[O][Pt]2([NH]C3CCCCC3[NH]2)[O]C1=O)C(=O)N[C@@H](CCCNC(=N)N)C(=O)N[C@@H](CCCNC(=N)N)C(=O)N[C@@H](CCCNC(=N)N)C(=O)N[C@@H](CCCNC(=N)N)C(N)=O (some centres unmarked) [BMPC-Pt]	128	51.6	22.3	12.5		
N.N.O=C([O-])C1(C(=O)[O-])CCC1.[Pt+2] [Carboplatin, reference compound]	110	36.5	24.5	4.5		
COc1cccc2c1C(=O)c1c(O)c3c(c(O)c1C2=O)C[C@@](O)(C(=O)CO)C[C@@H]3O[C@H]1C[C@H](N)[C@H](O)[C@H](C)O1 [DOX, doxorubicin, reference compound]					no significant difference	
COc1cccc2c1C(=O)c1c(O)c3c(c(O)c1C2=O)C[C@@](O)(C(=O)CO)C[C@@H]3O[C@H]1C[C@H](NC(=O)CCC(=O)N[C@@H](CCCNC(=N)N)C(=O)N[C@@H](CCCNC(=N)N)C(=O)NCCCC[C@H](NC(=O)[C@H](CCCNC(=N)N)NC(=O)[C@H](CCCNC(=N)N)NC(C)=O)C(=O)N[C@@H](CCCNC(=N)N)C(=O)N[C@@H](CCCNC(=N)N)C(=O)N[C@@H](CCCNC(=N)N)C(=O)N[C@@H](CCCNC(=N)N)C(N)=O)[C@H](O)[C@H](C)O1 [DOX-PTD] (Ac-RRK([Arg-Arg-Suc-Doxorubicin(3'-N)])RRRR-NH2)					no significant difference	number of live cells (PC-3 cells; 0.2 mg/per well, 2 hrs, FIGS. 11 and 12): less than with Dox alone; penetration into the PC-3 cells (PC-3 cells; inferred from live cell counts): greater penetration into the PC-3 cells compared to Dox alone; tumor size [4]: increased in size less than the tumor injected with Dox alone; cytotoxicity (mammalian cells): extremely high; viability (MTT cytotoxicity study): < 40%
N=C(N)NCCCC(N)C(=O)NC(CCCNC(=N)N)C(=O)NC(CCCNC(=N)N)C(=O)NCCCCC(NC(=O)C(CCCNC(=N)N)NC(=O)C(CCCNC(=N)N)NC(=O)C(N)CCCNC(=N)N)C(=O)NCCCCC(NC(=O)C(CCCNC(=N)N)NC(=O)C(CCCNC(=N)N)NC(=O)CCCC[C@@H]1SC[C@@H]2NC(=O)N[C@@H]21)C(N)=O (some centres unmarked) [compound 11]						transdermal delivery efficiency compared to vehicle (PBS) (Mouse skin tissue): dramatic transdermal delivery efficiency; transduction efficiency compared to vehicle (PBS) (Hela 705 cells): dramatic transduction efficiency
